The source of these data is patent US9834559B2, “4-Amino-6-phenyl-5,6-dihydroimidazo[1,5-a]pyrazin-3(2H)-one derivatives as inhibitors of beta-secretase (BACE)” (Janssen Pharmaceutica NV, priority 2013, dated 2017).

Test [1] relates to Abeta total produced and secreted by human neuroblastoma SKNBE2 cells expressing hAPP695. As to the kind of experiment: Cellular αLisa assay in SKNBE2 cells, Abeta total. Format: cell-based. As to conditions: 18 hours incubation, read-out: Cellular αLisa assay in SKNBE2 cells Abetatotal pIC50 (converted). The procedure:
In two αLisa assays the levels of Abeta total and Abeta 1-42 produced and secreted into the medium of human neuroblastoma SKNBE2 cells are quantified. The assay is based on the human neuroblastoma SKNBE2 expressing the wild type Amyloid Precursor Protein (hAPP695). The compounds are diluted and added to these cells, incubated for 18 hours and then measurements of Abeta 1-42 and Abeta total are taken. Abeta total and Abeta 1-42 are measured by sandwich αLisa. αLisa is a sandwich assay using biotinylated antibody AbN/25 attached to streptavidin coated beads and antibody Ab4G8 or cAb42/26 conjugated acceptor beads for the detection of Abeta total and Abeta 1-42 respectively. In the presence of Abeta total or Abeta 1-42, the beads come into close proximity. The excitation of the donor beads provokes the release of singlet oxygen molecules that trigger a cascade of energy transfer in the acceptor beads, resulting in light emission. Light emission is measured after 1 hour incubation (excitation at […] and emission at 615 nm).
A best-fit curve is fitted by a minimum sum of squares method to the plot of % Controlmin versus compound concentration. From this an IC50 value (inhibitory concentration causing 50% inhibition of activity) can be obtained. • LC=Median of the low control values • =Low control: cells preincubated without compound, without biotinylated Ab in the αLisa • HC=Median of the High control values • =High Control: cells preincubated without compound • % Effect=100−[(sample−LC)/(HC−LC)*100] • % Control=(sample/HC)*100 • % Controlmin=(sample−LC)/(HC−LC)*100

The target of test [2] is T1, recombinant BACE2 protein (Homo sapiens, UniProt Q9Y5Z0).
T1 sequence (Q9Y5Z0 63-518): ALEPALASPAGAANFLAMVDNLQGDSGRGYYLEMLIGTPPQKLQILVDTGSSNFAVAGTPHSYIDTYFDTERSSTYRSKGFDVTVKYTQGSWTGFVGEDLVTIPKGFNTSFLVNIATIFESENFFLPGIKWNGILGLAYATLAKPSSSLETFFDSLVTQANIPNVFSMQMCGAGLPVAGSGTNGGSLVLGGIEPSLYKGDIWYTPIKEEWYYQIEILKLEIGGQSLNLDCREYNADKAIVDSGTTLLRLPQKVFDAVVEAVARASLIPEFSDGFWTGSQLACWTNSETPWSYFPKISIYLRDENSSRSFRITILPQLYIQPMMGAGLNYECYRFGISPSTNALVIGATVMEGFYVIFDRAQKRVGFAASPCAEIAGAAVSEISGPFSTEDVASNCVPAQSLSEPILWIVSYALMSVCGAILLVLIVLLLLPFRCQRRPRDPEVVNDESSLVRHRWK
As to the kind of experiment: BACE2 biochemical FRET based assay. As to conditions: BACE2 0.4 μg/ml, 10 μM substrate, pH 5.0, 450 min; read-out: BACE2 Biochemical FRET based assay pIC50 (converted). The text has this:
(§1) This assay is a Fluorescence Resonance Energy Transfer Assay (FRET) based assay. The substrate for this assay contains the ‘Swedish’ Lys-Met/Asn-Leu mutation of the amyloid precursor protein (APP) beta-secretase cleavage site. This substrate also contains two fluorophores: (7-methoxycoumarin-4-yl) acetic acid (Mca) is a fluorescent donor with excitation wavelength at 320 nm and emission at 405 nm and 2,4-Dinitrophenyl (Dnp) is a proprietary quencher acceptor. […] Upon cleavage by the beta-secretase, the fluorophore Mca is separated from the quenching group Dnp, restoring the full fluorescence yield of the donor. The increase in fluorescence is linearly related to the rate of proteolysis.
Briefly in a 384-well format recombinant BACE2 protein in a final concentration of 0.4 μg/ml is incubated for 450 minutes at room temperature with 10 μM substrate in incubation buffer (50 mM Citrate buffer pH 5.0, 0.05% PEG, no DMSO) in the absence or presence of compound. Next the amount of proteolysis is directly measured by fluorescence measurement at T=0 and T=450 (excitation at 320 nm and emission at 405 nm). Results are expressed in RFU (Relative Fluorescence Units), as difference between T450 and T0.
(§2) A best-fit curve is fitted by a minimum sum of squares method to the plot of % Controlmin versus compound concentration. From this an IC50 value (inhibitory concentration causing 50% inhibition of activity) can be obtained. • LC=Median of the low control values • =Low control: Reaction without enzyme • HC=Median of the High control values • =High Control: Reaction with enzyme • % Effect=100−[(sample−LC)/(HC−LC)*100] • % Control=(sample/HC)*100 • % Controlmin=(sample−LC)/(HC−LC)*100

Test [3] addresses recombinant BACE1 protein (Homo sapiens, UniProt P56817). The test is described as follows: BACE1 biochemical FRET based assay. As to conditions: BACE1 0.04 μg/ml, 20 μM substrate, pH 5.0, 450 min; read-out: Biochemical FRET based assay pIC50 (converted).
Excerpt: as §1, with “this assay is an APP derived 13 amino acids peptide that contains the” for “this assay contains the”, “cleavage by BACE1, the fluorophore” for “cleavage by the beta-secretase, the fluorophore”
Briefly in a 384-well format recombinant BACE1 protein in a final concentration of 0.04 μg/ml is incubated for 450 minutes at room temperature with 20 μM substrate in incubation buffer (50 mM Citrate buffer pH 5.0, 0.05% PEG) in the presence of compound or DMSO. Next the amount of proteolysis is directly measured by fluorescence measurement (excitation at 320 nm and emission at 405 nm) at different incubation times (0, 30, 60, 90, 120 and 450 min). For every experiment a time curve (every 30 min between 0 min and 120 min) is used to determine the time where we find the lowest basal signal of the high control. The signal at this time (Tx) is used to subtract from the signal at 450 min. Results are expressed in RFU, as difference between T450 and Tx.
as §2

Sequence of recombinant BACE1 protein (P56817 46-501): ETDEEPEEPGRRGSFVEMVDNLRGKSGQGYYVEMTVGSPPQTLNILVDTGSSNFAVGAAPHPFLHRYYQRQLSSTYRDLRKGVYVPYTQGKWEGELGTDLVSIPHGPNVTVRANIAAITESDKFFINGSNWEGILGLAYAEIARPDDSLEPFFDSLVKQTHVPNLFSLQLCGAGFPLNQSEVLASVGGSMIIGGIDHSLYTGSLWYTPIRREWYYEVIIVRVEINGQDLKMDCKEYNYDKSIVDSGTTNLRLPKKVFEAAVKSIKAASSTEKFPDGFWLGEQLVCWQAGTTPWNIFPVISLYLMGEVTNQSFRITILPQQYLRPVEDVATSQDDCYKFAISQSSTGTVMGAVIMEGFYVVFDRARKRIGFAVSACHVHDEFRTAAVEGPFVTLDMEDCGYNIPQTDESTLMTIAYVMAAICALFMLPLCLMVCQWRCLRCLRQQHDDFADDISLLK

As for `Cn1cc2n(c1=O)C[C@@](C)(c1cc(NC(=O)c3ccc(C#N)cn3)ccc1F)N=C2N` [Compound 1, N-{3-[(6R)-8-Amino-2,6-dimethyl-3-oxo-2,3,5,6-tetrahydroimidazo[1,5-a]pyrazin-6-yl]-4-fluorophenyl}-5-cyanopyridine-2-carboxamide], the IC50 in test [1] was 11.5 nM; in test [2], 19.5 nM; in test [3] it was 2.95 nM.
With `Cc1nc(C(=O)Nc2ccc(F)c([C@]3(C)Cn4c(cn(C)c4=O)C(N)=N3)c2)co1` [Compound 3, N-{3-[(6R)-8-Amino-2,6-dimethyl-3-oxo-2,3,5,6-tetrahydroimidazo[1,5-a]pyrazin-6-yl]-4-fluorophenyl}-2-methyl-1,3-oxazole-4-carboxamide], the values for the IC50 in test [1], in test [2] and in test [3] were 52.5 nM, 6.61 nM and 9.55 nM, respectively.
Taken in the same sequence, the figures for `Cn1cc2n(c1=O)C[C@@](C)(c1cc(NC(=O)c3ccc(Cl)cn3)ccc1F)N=C2N` [Compound 4, N-{3-[(6R)-8-amino-2,6-dimethyl-3-oxo-5H-imidazo[1,5-a]pyrazin-6-yl]-4-fluoro-phenyl}-5-chloro-pyridine-2-carboxamide] were 6.03 nM, 4.37 nM and 3.98 nM.
